Source: patent publication US20030176314A1, “Compounds for the treatment of pain” (priority 2001, published 2003)
Counter-ions that a name gives are not always drawn.

Assays:
rat NPFF2 receptor = molecular target: T1, rat NPFF2 receptor (Rattus norvegicus, UniProt Q9EQD2); experiment: Functional assay (agonist potency, intrinsic activity) at cloned rat NPFF2 receptor; format: cell-based; conditions: Table 7, intrinsic activity
T1 construct: The full-length NPFF2 was amplified from rat spinal cord cDNA; expressed in transfected cells; host or cells: not given

human NPFF2 receptor = molecular target: T2, human NPFF2 receptor (Homo sapiens, UniProt Q9Y5X5); experiment: Functional assay (agonist potency, intrinsic activity) at cloned human NPFF2 receptor; format: cell-based; conditions: Table 6, intrinsic activity
T2 construct: one of these, B089, was determined to be a full length clone with no point mutations; expressed in transfected cells; host or cells: not given

[1] = molecular target: T3, serotonin (5HT) transporter (Rattus norvegicus, UniProt P31652); experiment: Binding at native serotonin transporter (5HT uptake); conditions: Table 8
T3 construct: evaluated at native, tissue-derived transporters; from tissue
Protocol: (§1) Transporters: The binding properties of compounds were evaluated at native, tissue-derived transporters, namely serotonin (5HT) transporter and norepinephrine (NE) transporter, according to protocols described in Owens (1997), the disclosure of which is hereby incorporated by reference in its entirety into this application.
(§2) The binding affinity (Ki) of these compounds were tested according to the protocols described herein at the following receptors; human α1A, α1B, α1D, α2A, α2B, and α2C adrenergic receptors; human Y1, Y2, Y4, and Y5 receptors; and N-Methyl-D-aspartic acid (NMDA) receptor channels. The binding interactions of these compounds were additionally tested at the norepinephrine (NE) transporter (NE uptake) and serotonin (5-hydroxytryptamine (5HT)) transporter (5HT uptake) according to protocols described herein

[2] = molecular target: T4, norepinephrine (NE) transporter (Rattus norvegicus, UniProt Q63380); experiment: Binding at native norepinephrine transporter (NE uptake); conditions: Table 8
T4 construct: evaluated at native, tissue-derived transporters; from tissue
Protocol: as §1, §2

[3] = molecular target: T5, human α2B adrenergic receptor (Homo sapiens, UniProt P18089); experiment: Binding at human α2B adrenergic receptor; conditions: Table 8; read-out: hα2B Ki
T5 construct: host or cells: LM(tk-) cells, line L-NGC-α2B
T5 sequence (P18089 1-450): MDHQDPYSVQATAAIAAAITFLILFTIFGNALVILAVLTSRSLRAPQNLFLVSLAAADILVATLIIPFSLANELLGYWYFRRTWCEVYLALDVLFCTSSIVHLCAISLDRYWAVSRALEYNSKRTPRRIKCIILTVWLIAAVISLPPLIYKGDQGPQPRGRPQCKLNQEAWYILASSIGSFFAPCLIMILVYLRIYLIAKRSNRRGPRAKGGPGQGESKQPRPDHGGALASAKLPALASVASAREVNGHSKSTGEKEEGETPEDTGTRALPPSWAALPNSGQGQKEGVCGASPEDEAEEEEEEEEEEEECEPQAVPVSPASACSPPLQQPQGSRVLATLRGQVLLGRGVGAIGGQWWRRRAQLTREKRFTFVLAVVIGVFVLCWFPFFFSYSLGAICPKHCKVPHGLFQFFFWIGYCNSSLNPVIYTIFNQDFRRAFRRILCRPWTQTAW
Source text: (§3) α2 Human Adrenergic Receptors: To determine the binding of compounds to human α2 receptors, LM(tk−) cell lines stably transfected with the genes encoding the α2A, α2B, and α2C receptors were used. The cell line expressing the α2A receptor is designated L-α2A, and was deposited on Nov. 6, 1992, under ATCC Accession No. CRL 11180. The cell line expressing the α2B receptor is designated L-NGC-α2B, and was deposited on Oct. 25, 1989, under ATCC Accession No. CRL 10275. The cell line expressing the α2C receptor is designated L-α2C, and was deposited on Nov. 6, 1992, under ATCC Accession No. CRL-11181. Cell lysates were prepared as described herin, and suspended in 25 mM glycyiglycine buffer (pH 7.6 at room temperature). Equilibrium competition binding assay were performed using […] (0.5 nM), and nonspecific binding was determined by incubation with 10 μM phentolamine. The bound radioligand was separated by filtration through GF/B filters using a cell harvester.
as §2

[4] = molecular target: T6, human α2A adrenergic receptor (Homo sapiens, UniProt P08913); experiment: Binding at human α2A adrenergic receptor; conditions: Table 8; read-out: hα2A Ki
T6 construct: host or cells: LM(tk-) cells, line L-α2A
T6 sequence (P08913 1-465): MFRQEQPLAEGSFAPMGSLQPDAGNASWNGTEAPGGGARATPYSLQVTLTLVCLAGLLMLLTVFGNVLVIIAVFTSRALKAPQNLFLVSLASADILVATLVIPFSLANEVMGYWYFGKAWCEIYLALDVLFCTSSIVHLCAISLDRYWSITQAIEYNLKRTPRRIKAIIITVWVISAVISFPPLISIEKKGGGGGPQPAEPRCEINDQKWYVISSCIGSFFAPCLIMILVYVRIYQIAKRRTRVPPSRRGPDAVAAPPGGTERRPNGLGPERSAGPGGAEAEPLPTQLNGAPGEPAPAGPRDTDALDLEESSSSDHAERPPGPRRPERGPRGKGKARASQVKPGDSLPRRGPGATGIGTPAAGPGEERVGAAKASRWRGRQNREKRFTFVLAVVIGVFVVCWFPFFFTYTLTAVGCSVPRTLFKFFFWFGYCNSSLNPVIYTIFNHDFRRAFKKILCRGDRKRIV
Source text: as §3, §2

[5] = molecular target: T7, human α2C adrenergic receptor (Homo sapiens, UniProt P18825); experiment: Binding at human α2C adrenergic receptor; conditions: Table 8; read-out: hα2C Ki
T7 construct: host or cells: LM(tk-) cells, line L-α2C
T7 sequence (P18825 1-462): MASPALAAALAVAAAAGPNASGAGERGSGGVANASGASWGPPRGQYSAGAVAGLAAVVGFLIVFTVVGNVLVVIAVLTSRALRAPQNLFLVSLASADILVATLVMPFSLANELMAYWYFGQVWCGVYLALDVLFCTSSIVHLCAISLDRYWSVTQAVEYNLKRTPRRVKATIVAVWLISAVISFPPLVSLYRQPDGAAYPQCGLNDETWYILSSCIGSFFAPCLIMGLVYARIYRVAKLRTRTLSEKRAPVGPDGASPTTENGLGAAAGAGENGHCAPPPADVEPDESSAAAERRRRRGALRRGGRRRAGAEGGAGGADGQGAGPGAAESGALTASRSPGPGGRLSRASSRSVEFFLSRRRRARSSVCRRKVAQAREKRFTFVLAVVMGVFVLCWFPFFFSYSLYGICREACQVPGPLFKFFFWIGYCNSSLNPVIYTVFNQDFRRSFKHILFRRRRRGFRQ
Source text: as §3, §2

rat NPFF1 receptor = molecular target: T8, rat NPFF1 receptor (Rattus norvegicus, UniProt Q9EP86); experiment: Functional assay (agonist potency, intrinsic activity) at cloned rat NPFF1 receptor; format: cell-based; conditions: Table 7, intrinsic activity
T8 construct: expressed in transfected cells; host or cells: not given

[6] = tested on: distension induced contractions of the rat bladder; experiment: Distension-induced rhythmic contraction (DIRC) model, micturition reflex in anesthetized rats; format: in vivo
Source text: This model is widely considered to be predictive for the actions of drugs to treat human urge incontinence (also refered to as detrusor instability or unstable bladder). Examples of drugs that are active in this model which also are used therapeutically in humans include oxybutynin and baclofen (Morikawa et al, 1992); imipramine and nortriptyline (Pietra et al, 1990); and nifedipine and terodiline (Guarneri et al, 1993).
Female Sprague Dawley rats weighing approximately 300 g were anesthetized with subcutaneous urethane (1.2 g/kg). The trachea was cannulated with PE240 tubing to provide a clear airway throughout the experiment. A midline abdominal incision was made and the left and right ureters were isolated. The ureters were ligated distally (to prevent escape of fluids from the bladder) and cannulated proximally with PE10 tubing. The incision was closed using 4-0 silk sutures, leaving the PE10 lines routed to the exterior for the elimination of urine. The bladder was canulated via the transurethral route using PE50 tubing inserted 2.5 cm beyond the urethral opening. This cannula was secured to the tail using tape and connected to a pressure transducer. To prevent leakage from the bladder, the cannula was tied tightly to the exterior urethral opening using 4-0 silk.
To initiate the micturition reflex, the bladder was first emptied by applying pressure to the lower abdomen, and then filled with normal saline in 100 μl increments (maximum=2 ml) until spontaneous bladder contractions occurred (typically 20-40 mmHg at a rate of one contraction every 2 to 3 minutes. Once a regular rhythm was established, vehicle (saline) or test compounds were administered i.v. to examine their effects on bladder activity. The effect of a compound which inhibited the micturition reflex was expressed as its “disappearance time”, defined as the time between successive bladder contractions in the presence of the test compound minus the time between contractions before compound administration.

[7] = molecular target: N-methyl-D-aspartate (NMDA) receptor channel complex; experiment: Binding at native NMDA receptor channels; parameters: species or system rat; conditions: Table 8
Protocol: NMDA Receptor Channels: The methods to determine binding affinity at native N-methyl-D-aspartate (NMDA) receptor channels are described in Wong E. H. et al. (1988), the disclosure of which is hereby incorporated by reference in its entirety into this application.
as §2

[8] = tested on: distension induced contractions of the rat bladder; conditions: drugs used therapeutically in humans, from publications; cited from earlier work

T2 sequence (Q9Y5X5 103-522): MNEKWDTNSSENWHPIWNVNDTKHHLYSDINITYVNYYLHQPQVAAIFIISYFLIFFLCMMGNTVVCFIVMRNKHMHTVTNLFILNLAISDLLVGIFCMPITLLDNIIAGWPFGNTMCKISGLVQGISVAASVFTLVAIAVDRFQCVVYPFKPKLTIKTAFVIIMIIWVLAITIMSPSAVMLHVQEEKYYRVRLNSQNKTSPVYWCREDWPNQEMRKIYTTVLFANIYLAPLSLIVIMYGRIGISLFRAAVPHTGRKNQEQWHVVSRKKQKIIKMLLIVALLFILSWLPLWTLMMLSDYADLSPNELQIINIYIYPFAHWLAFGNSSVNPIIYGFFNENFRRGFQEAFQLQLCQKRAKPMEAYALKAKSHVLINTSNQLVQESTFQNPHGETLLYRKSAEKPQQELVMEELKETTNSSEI
T8 sequence (Q9EP86 whole entry): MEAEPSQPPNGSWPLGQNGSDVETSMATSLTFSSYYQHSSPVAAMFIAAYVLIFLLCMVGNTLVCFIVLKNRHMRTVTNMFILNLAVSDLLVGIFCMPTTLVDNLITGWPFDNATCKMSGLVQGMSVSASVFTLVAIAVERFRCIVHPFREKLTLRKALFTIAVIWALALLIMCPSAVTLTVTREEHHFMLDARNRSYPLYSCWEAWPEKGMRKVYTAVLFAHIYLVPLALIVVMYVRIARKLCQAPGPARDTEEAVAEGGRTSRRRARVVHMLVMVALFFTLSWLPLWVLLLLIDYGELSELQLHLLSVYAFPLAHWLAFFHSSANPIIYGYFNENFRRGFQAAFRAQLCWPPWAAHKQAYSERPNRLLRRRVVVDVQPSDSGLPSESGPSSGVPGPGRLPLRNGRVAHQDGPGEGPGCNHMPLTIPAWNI
T1 sequence (Q9EQD2 whole entry): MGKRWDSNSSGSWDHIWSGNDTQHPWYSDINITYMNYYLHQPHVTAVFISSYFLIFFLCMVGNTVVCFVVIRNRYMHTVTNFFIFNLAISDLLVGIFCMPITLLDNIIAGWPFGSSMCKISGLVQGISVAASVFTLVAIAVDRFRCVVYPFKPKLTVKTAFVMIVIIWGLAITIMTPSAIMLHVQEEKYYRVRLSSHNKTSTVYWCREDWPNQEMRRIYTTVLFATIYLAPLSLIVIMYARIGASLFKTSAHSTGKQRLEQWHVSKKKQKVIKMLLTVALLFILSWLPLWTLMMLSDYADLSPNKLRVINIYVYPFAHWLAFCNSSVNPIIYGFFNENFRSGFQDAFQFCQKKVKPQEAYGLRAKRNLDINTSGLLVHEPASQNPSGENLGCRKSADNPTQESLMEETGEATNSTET
T3 sequence (P31652 whole entry): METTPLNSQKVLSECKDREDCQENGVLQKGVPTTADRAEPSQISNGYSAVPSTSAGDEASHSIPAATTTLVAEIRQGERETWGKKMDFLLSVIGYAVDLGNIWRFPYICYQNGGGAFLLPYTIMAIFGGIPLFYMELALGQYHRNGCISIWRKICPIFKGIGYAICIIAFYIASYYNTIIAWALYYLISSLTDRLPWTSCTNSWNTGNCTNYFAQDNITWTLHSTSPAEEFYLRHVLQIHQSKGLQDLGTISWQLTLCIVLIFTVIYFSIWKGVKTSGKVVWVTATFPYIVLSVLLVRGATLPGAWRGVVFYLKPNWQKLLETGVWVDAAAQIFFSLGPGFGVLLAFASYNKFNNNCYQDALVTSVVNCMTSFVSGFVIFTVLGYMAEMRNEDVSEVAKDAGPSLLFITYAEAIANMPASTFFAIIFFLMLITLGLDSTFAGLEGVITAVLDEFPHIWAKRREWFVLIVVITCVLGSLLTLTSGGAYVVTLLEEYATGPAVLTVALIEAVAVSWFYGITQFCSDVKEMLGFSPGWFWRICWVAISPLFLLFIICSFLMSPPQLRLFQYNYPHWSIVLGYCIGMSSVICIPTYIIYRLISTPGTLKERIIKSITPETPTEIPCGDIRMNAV
T4 sequence (Q63380 1-617): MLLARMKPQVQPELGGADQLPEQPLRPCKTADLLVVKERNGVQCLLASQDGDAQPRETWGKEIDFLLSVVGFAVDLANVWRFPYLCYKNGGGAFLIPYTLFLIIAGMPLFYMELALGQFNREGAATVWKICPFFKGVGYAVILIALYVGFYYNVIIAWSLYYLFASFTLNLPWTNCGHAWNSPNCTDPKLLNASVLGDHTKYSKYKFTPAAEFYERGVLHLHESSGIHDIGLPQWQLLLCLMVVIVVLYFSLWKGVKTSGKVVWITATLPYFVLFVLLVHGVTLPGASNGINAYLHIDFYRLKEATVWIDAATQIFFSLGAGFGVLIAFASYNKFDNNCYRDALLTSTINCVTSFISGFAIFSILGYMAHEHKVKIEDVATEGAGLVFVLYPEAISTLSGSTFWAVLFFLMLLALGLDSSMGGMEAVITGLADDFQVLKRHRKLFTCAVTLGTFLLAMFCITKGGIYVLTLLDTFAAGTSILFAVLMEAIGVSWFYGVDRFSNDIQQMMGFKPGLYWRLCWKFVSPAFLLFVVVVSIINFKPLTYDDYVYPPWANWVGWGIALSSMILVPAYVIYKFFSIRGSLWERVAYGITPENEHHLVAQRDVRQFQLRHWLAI

Cc1nc(NC(=N)N)nc2cc(-c3ccccc3)ccc12 [Compound 1023A, N-(4-methyl-7-phenyl-2-quinazolinyl)guanidine]
rNPFF2 IA (rat NPFF2 receptor): 35% NPFF | hNPFF2 IA (human NPFF2 receptor): 43% NPFF

CCc1ccc2c(C)nc(NC(=N)N)nc2c1 [Compound 1020A, N-(7-ethyl-4-methyl-2-quinazolinyl)guanidine]
Ki [1]: 5.59 µM | Ki [2]: 8.02 µM | rNPFF2 IA (rat NPFF2 receptor): 90% NPFF | Ki [3]: 20.9 µM | Ki [4]: 1.17 µM | Ki [5]: 4.13 µM

CCCCCCc1ccc2nc(NC(=N)N)cc(C)c2c1 [Compound 5003A, N-(6-hexyl-4-methyl-2-quinolinyl)guanidine]
rNPFF2 IA (rat NPFF2 receptor): 57% NPFF | hNPFF2 IA (human NPFF2 receptor): 45% NPFF | rNPFF1 IA (rat NPFF1 receptor): 27% NPFF

Cc1nc(NC(=N)N)nc2cc(C(C)(C)C)ccc12 [Compound 1022A, N-[7-(tert-butyl)-4-methyl-2-quinazolinyl]guanidine]
melting point: 195 to 198 °C (dec.) | rNPFF2 IA (rat NPFF2 receptor): 81% NPFF | rNPFF1 IA (rat NPFF1 receptor): 19% NPFF

Cc1ccc2c(C)cc(NC(=N)N)nc2c1 [Compound 4006A, N-(4,7-dimethyl-2-quinolinyl)guanidine]
Ki [1]: 8.79 µM | Ki [2]: 12.4 µM | rNPFF2 IA (rat NPFF2 receptor): 32% NPFF | inhibition of distention induced contractions of the rat bladder ([6]; 3 mg/kg, i.v.): complete inhibition | time for which inhibition of bladder activity persisted ([6]; i.v. administration, anesthetized rat (figure legends)): 12 min

CCc1ccc2nc(NC(=N)N)nc(C)c2c1 [Compound 1003A, N-(6-ethyl-4-methyl-2-quinazolinyl)guanidine]
Ki [7]: 19.5 µM | rNPFF2 IA (rat NPFF2 receptor): 83% NPFF | Ki [3]: 31.8 µM | Ki [4]: 1.97 µM | Ki [5]: 8.45 µM

Cc1nc(NC(=N)N)nc2cc3c(cc12)CCC3 [Compound 1038A, N-(4-methyl-7,8-dihydro-6H-cyclopenta[g]quinazolin-2-yl)guanidine]
melting point: 295 to 298 °C (dec.) | rNPFF2 IA (rat NPFF2 receptor): 74% NPFF

CCc1ccc2nc(NC(=N)N)cc(C)c2c1 [Compound 4002A, N-(6-ethyl-4-methyl-2-quinolinyl)guanidine]
Ki [7]: 12.8 µM | rNPFF2 IA (rat NPFF2 receptor): 84% NPFF | hNPFF2 IA (human NPFF2 receptor): 69% NPFF | Ki [3]: 10.4 µM | Ki [4]: 0.267 µM | Ki [5]: 1.4 µM

CN(C)CCCN1c2ccccc2CCc2ccccc21 [imipramine]
activity in the DIRC model [8]: active

Cc1cc2nc(NC(=N)N)nc(C)c2cc1O (as salt: salt) [Compound 1017A, N-(6-hydroxy-4,7-dimethyl-2-quinazolinyl)guanidine]
melting point: 246 to 248 °C (dec.)

Cc1nc(NC(=N)N)nc2cc(OCc3ccccc3)ccc12 (as salt: salt) [Compound 1006A, N-[7-(benzyloxy)-4-methyl-2-quinazolinyl]guanidine]
melting point: 215 to 217 °C (dec.)

CCCCCc1ccc2nc(NC(=N)N)nc(C)c2c1 [Compound 2001A, N-(4-methyl-6-pentyl-2-quinazolinyl)guanidine]
Ki [7]: 8.13 µM | Ki [1]: 0.962 µM | Ki [2]: 1.16 µM | rNPFF2 IA (rat NPFF2 receptor): 103% NPFF | hNPFF2 IA (human NPFF2 receptor): 84% NPFF | Ki [3]: 7.41 µM | Ki [4]: 0.808 µM | rNPFF1 IA (rat NPFF1 receptor): 71% NPFF | Ki [5]: 1.91 µM

CCN(CC)CC#CCOC(=O)C(O)(c1ccccc1)C1CCCCC1 (stereo not drawn) [oxybutynin]
activity in the DIRC model [8]: active

CCC(C)c1ccc2nc(NC(=N)N)nc(C)c2c1 (stereo not drawn) [Compound 2002A, N-(6-sec-butyl-4-methyl-2-quinazolinyl)guanidine]
Ki [7]: 7.62 µM | rNPFF2 IA (rat NPFF2 receptor): 92% NPFF | Ki [3]: 12.9 µM | Ki [4]: 0.713 µM | rNPFF1 IA (rat NPFF1 receptor): 51% NPFF | Ki [5]: 3.33 µM

CNCCC=C1c2ccccc2CCc2ccccc21 [nortriptyline]
activity in the DIRC model [8]: active

CC(CC(c1ccccc1)c1ccccc1)NC(C)(C)C (stereo not drawn) [terodiline]
activity in the DIRC model [8]: active

NCC(CC(=O)O)c1ccc(Cl)cc1 (stereo not drawn) [baclofen]
activity in the DIRC model [8]: active

CCCCCc1ccc2nc(NC(=N)N)cc(C)c2c1 [Compound 5002A, N-(4-methyl-6-pentyl-2-quinolinyl)guanidine]
rNPFF2 IA (rat NPFF2 receptor): 90% NPFF | hNPFF2 IA (human NPFF2 receptor): 75% NPFF | rNPFF1 IA (rat NPFF1 receptor): 41% NPFF
